Values of other authors as cited in patent US20060251637A1, “Oil-in-water type emulsion containing coenzyme q10 and process for producting the same” (priority 2003, published 2006).

Conditions: at 20° C.; decreases with decreasing temperature

Compound: COC1=C(OC)C(=O)C(C/C=C(\C)CC/C=C(\C)CC/C=C(\C)CC/C=C(\C)CC/C=C(\C)CC/C=C(\C)CC/C=C(\C)CC/C=C(\C)CC/C=C(\C)CCC=C(C)C)=C(C)C1=O [coenzyme Q10]
- Lipid solubility of coenzyme Q10: approximately 1%
